Assay results as given in patent US8658633B2, “Methods and compositions for treating conditions of the eye” (Massachusetts Eye and Ear Infirmary, priority 2006, dated 2014).

Assays:
[1] = set-up: unit not given here; settings: typical value, general description; cited from earlier work
HIF-1a = assay: Quantification of retinal HIF-1a activation (Trans-AM transcription factor assay on retinal nuclear extract); assay type: in vivo, Brown Norway rats
Procedure: (§1) Briefly, CNV membranes were induced in Brown-Norway rats using an Argon/Dye laser while either 17AAG at a total dose of approximately 2 mg or the vehicle (DMSO) was continuously administered. Verterporfin PDT was performed 14 days after CNV induction at a verterporfin dose of 3 mg/m^2, an irradiance of 600 mW/cm^2, and a fluence of 25 J/cm^2. Choroidal neovasculature closure on fluorescein angiograms was assessed 24 hours and 7 days after PDT in a masked fashion using grading standards. Retinal levels of p42/44 MAPK, HIF-1a, NF-kB, VEGF, and endostatin were assessed with a modified enzyme-linked immunoabsorbant assay (“ELISA”) method. […]
(§2) NF-kB and HIF-1a activation was analyzed using the Trans-AM NF-kB p65/NF-kB p50 Transcription Factor Assay Kit (Active Motif North America, Carlsbad, Calif.) according to the manufacturer's instructions. Briefly, two micrograms of a retinal nuclear extract were incubated with an oligonucleotide containing the consensus binding element for each of the transcription factors analyzed bound to a 96-well plate. […] After washes, the plates were subsequently incubated with a secondary antibody conjugated to horseradish peroxidase (1:1000), and the peroxidase reaction was quantified at 450 nm with a reference wavelength of 655 nm. […]

endostatin = assay: ELISA for retinal endostatin levels in laser-induced CNV rats; assay type: in vivo, Brown Norway rats
Procedure: as §1
Each retina was homogenized in 100 μl of solution consisting of 20 mM imidazole hydrochloride, 100 mM KCl, 1 mM MgCl, 1 mM EGTA, 1% Triton, 10 mM NaF, 1 mM sodium molybdynate and 1 mM EDTA supplemented with a cocktail of protease inhibitors (Complete, Roche, Basel, Switzerland) prior to use. Samples were cleared by centrifugation for 10 min. at 13,000 rpm and assessed for protein concentration with the BCA assay (Micro BCA™ Protein Assay Kit, Pierce Co., Rockford, Ill.). […] The reaction was stopped, and the absorption was measured in an ELISA reader at 450 nm. […] The tissue sample concentration was calculated from a standard curve and corrected for protein concentration.

p42/44 MAPK = assay: Retinal p42/44 MAPK activation (modified ELISA) in laser-induced CNV rats; assay type: in vivo, Brown Norway rats
Procedure: (§3) Briefly, CNV membranes were induced in Brown-Norway rats using an Argon/Dye laser while either 17AAG at a total dose of approximately 2 mg or the vehicle (DMSO) was continuously administered. Verterporfin PDT was performed 14 days after CNV induction at a verterporfin dose of 3 mg/m^2, an irradiance of 600 mW/cm^2, and a fluence of 25 J/cm^2. Choroidal neovasculature closure on fluorescein angiograms was assessed 24 hours and 7 days after PDT in a masked fashion using grading standards. Retinal levels of p42/44 MAPK, HIF-1a, NF-kB, VEGF, and endostatin were assessed with a modified enzyme-linked immunoabsorbant assay (“ELISA”) method. […] The combination of 17-allylamino-17-demethoxygeldanamycin treatment and PDT treatment was also synergistic with respect to increased endostatin levels.
To achieve steady drug levels in the circulation of animals, 17AAG (Calbiochem EMD Biosciences, San Diego, Calif.) or the vehicle (DMSO, Sigma, St. Louis, Mo.) was administered by slow intraperitoneal release from osmotic pumps (Alzet, Cupertino, Calif.) instead of repeated intraperitoneal injections. Immediately following the induction of choroidal neovascularization, osmotic pumps (Alzet, Cupertino, Calif.) were implanted as previously described (Poulaki et al. (2002) J. Clin. Invest. 109(6): 805-15). […]

NF-kB = assay: Quantification of retinal NF-kB activation (Trans-AM transcription factor assay on retinal nuclear extract); assay type: in vivo, Brown Norway rats
Procedure: as §1, §2

laser-induced CNV = assay: Fluorescein angiography grading of leakage and CNV closure in the rat model of laser-induced CNV; assay type: in vivo, Brown Norway rats
Procedure: as §3
All experiments adhered to the Association for Research in Vision and Ophthalmology Statement for the Use of Animals in Ophthalmic and Vision Research and the guidelines established by the Animal Care Committee of the Massachusetts Eye and Ear Infirmary. Brown Norway rats (Charles River Laboratory, Wilmington, Mass.) were anesthetized via an intramuscular injection of 50 mg/kg of ketamine hydrochloride and 10 mg/kg of xylazine. Pupils were dilated with a topical application of 5% phenylephrine and 0.8% tropicamide. […]
Fluorescein angiography (“FA”) was performed 14 days after the initial laser treatment using a digital fundus camera system (model TRC 501A Topcon, Paramus, N.J.) and standard fluorescein filters to determine if CNV induction was successful. […] All angiograms were evaluated in masked fashion by two independent retina specialists using grading standards regarding severity of CNV (baseline FAs) and CNV closure (24 hours FAs).
PDT with verteporfin was performed on experimental CNV. […] The body surface area of each rat was determined based on their weight according to a nomogram developed by Gilpin (Gilpin et al. (1996) Burns 22(8): 607-1 1). […]

## CC(=O)[O-].CC(=O)[O-].CCc1c(CC)c2cc3nc(cnc4cc(OCCOCCOCCOC)c(OCCOCCOCCOC)cc4ncc4nc(cc1[n-]2)C(CCCO)=C4C)C(C)=C3CCCO.O.[Lu+3] [lutetium texaphyrin]
[1]
  time the photosensitizer persists in the target neovasculature: about twenty

## benzoporphyrin derivative
[1]
  time the photosensitizer persists in the target neovasculature: about fifty

## C=CCNC1=C2C[C@@H](C)C[C@H](OC)[C@H](O)[C@@H](C)/C=C(\C)[C@H](OC(N)=O)[C@@H](OC)/C=C\C=C(/C)C(=O)NC(=CC1=O)C2=O [17AAG, 17-allylamino-17-demethoxygeldanamycin]
HIF-1a; 17AAG and PDT treated animals, 1 day after PDT, PDT without 17AAG 1.69±0.38
  retinal levels of HIF-1a activation: 0.946±0.06 O.D./μg tissue
HIF-1a; 17AAG and laser treated animals without PDT, P>0.05 vs laser treated 1.06±0.1
  retinal levels of HIF-1a activation: 1.064±0.136 O.D./μg tissue
endostatin; 17AAG and PDT treated animals, 1 day after PDT, statistically significant vs laser treated 15.7±2.8
  retinal levels of endostatin: 258±6 O.D./μg tissue
endostatin; 17AAG and laser treated animals without PDT, P>0.05 vs laser treated 15.7±2.8
  retinal levels of endostatin: 32.34±6.11 O.D./μg tissue
p42/44 MAPK; 17AAG and PDT treated animals, 1 day after PDT, PDT without 17AAG 923±45
  retinal levels of p42/44 MAPK activation: 417±6 O.D./μg tissue
p42/44 MAPK; 17AAG and laser treated animals without PDT, P>0.05 vs laser treated 603±1
  retinal levels of p42/44 MAPK activation: 560±22 O.D./μg tissue
NF-kB; 17AAG and PDT treated animals, 1 day after PDT, PDT without 17AAG 13.7±0.3
  retinal levels of NF-kB activation: 5.9±0.045 O.D./μg tissue
NF-kB; 17AAG and laser treated animals without PDT, P>0.05 vs laser treated 10.12±0.74
  retinal levels of NF-kB activation: 9.54±1.47 O.D./μg tissue
laser-induced CNV; grade IIB lesions, 17AAG in combination with verteporfin PDT, DMSO+PDT control 6 out of 17
  lesions closed one week after PDT treatment: 12 out of the 14
laser-induced CNV; grade IIB lesions, 17AAG in combination with verteporfin PDT, DMSO+PDT control 9 out of 17
  lesions closed one day after PDT treatment: 12 out of the 14
laser-induced CNV; two weeks following CNV induction, 17AAG approx. 2 mg by i.p. osmotic pump, without PDT, P>0.05 vs DMSO (32 out of 53)
  lesions showing the highest grade (IIB) of leakage: 26 out of 47

## C=Cc1c(C)c2cc3nc(c(CC(=O)N[C@@H](CC(=O)O)C(=O)O)c4[nH]c(cc5nc(cc1[nH]2)C(C)=C5CC)c(C)c4C(=O)O)[C@@H](CCC(=O)O)[C@@H]3C [N-aspartyl chlorin e6]
[1]
  time the photosensitizer persists in the target neovasculature: about twenty
